In paper PMC4819940 (Cancer Chemotherapy and Pharmacology, 2016):
Read-outs that look alike come from different tables or passages of the source.

Tests used:
[1] = test system: Japanese patients with advanced solid malignancies
Description: This was a phase 1, open-label, multicenter, dose escalation study. […] All doses were required to be taken in a fasted state (no caloric intake from 2 h before dosing to 1 h after dosing).
All evaluations during the bid dosing regimen were conducted in 21-day assessment cycles. Patients were enrolled to ensure a minimum of three and a maximum of six evaluable patients per cohort. Dose escalation and de-escalation were determined by the number of dose-limiting toxicities (DLTs; defined as any toxicity related to study drug as assessed by the investigator and not attributable to the disease under investigation) in a cohort. […] If one patient in a group of […] evaluable patients experienced a DLT, the cohort was expanded to include six evaluable patients. […] If ≥2 patients in a group of up to six evaluable patients experienced a DLT, irrespective of the number of patients enrolled, the dose was considered not tolerated and recruitment to the cohort and dose escalation was ceased. De-escalation to a lower intermediary dose could be considered in order to better define the MTD.
Based on emerging clinical data from the continuous dosing regimen of this study and data from the Western Study 1 (D3610C00001, NCT01226316), which was running in parallel with the Japanese study, an intermittent dosing regimen was also evaluated in Japanese patients and with a starting dose of 480 mg bid and a 4/3 dosing schedule.
Safety and tolerability were assessed in terms of adverse events (AEs), serious adverse events (SAEs), deaths, laboratory data, vital signs, electrocardiogram (ECG), assessment of glucose metabolism, and physical examination. AEs were graded according to the Common Terminology Criteria for Adverse Events (CTCAE) version 4.0. Any AE occurring after the first dose of study treatment and within 30 days of the last dose of study treatment was included in the AE summaries.

[2] = test system: advanced solid tumors in Japanese patients; test: Objective tumor response (RECIST version 1.1); assay type: in vivo, human; conditions: for Best objective response: Non-response, Not evaluable / Best objective response: Non-response, RECIST progression / Best objective response: Non-response, Stable disease ≥6 weeks / Best objective response: Complete response / Best objective response: Partial response: patients, count (%); for Best objective response: Complete response / Best objective response: Partial response: response confirmed after 4 weeks; for time to partial response after starting AZD5363: Akt1 (E17K) positive; for duration of partial response at data cutoff: data cutoff July 7, 2014
Source text: Objective tumor response assessments were based on Response Evaluation Criteria in Solid Tumors (RECIST) version 1.1.
Tumor samples were screened for mutations using a clinical sequencing platform consisting of an in-house cancer gene panel (National Cancer Center OncoPanel version 2) based on an Agilent Sure Select system and an Illumina MiSeq sequencer. The target regions to be captured were the exons of 90 targetable or actionable genes and the introns of 10 protein kinase genes. Samples with <10 % tumor cell content were excluded from the analysis.

[3] = test system: Western patients with advanced solid malignancies; parameters: method as in earlier work; conditions: 4/3 dosing schedule; cited from earlier work
[4] = breast cancer patient, 640 mg bid intermittent 2/5
[5] = ovarian cancer patient, 480 mg bid intermittent 4/3

NC1(C(=O)N[C@@H](CCO)c2ccc(Cl)cc2)CCN(c2ncnc3[nH]ccc23)CC1 [AZD5363]
AE with outcome of death: Any ([1]; 80 mg bid continuous, n=3): 0 (0.0) number (%) of patients
AE with outcome of death: Any ([1]; 240 mg bid continuous, n=7): 0 (0.0) number (%) of patients
AE with outcome of death: Any ([1]; 320 mg bid continuous, n=6): 0 (0.0) number (%) of patients
AE with outcome of death: Any ([1]; 360 mg bid intermittent 4/3, n=8): 0 (0.0) number (%) of patients
AE with outcome of death: Any ([1]; 400 mg bid continuous, n=5): 0 (0.0) number (%) of patients
AE with outcome of death: Any ([1]; 480 mg bid intermittent 4/3, n=6): 0 (0.0) number (%) of patients
AE with outcome of death: Any ([1]; 640 mg bid intermittent 2/5, n=6): 0 (0.0) number (%) of patients
AE with outcome of death: Any ([1]; Total, n=41): 0 (0.0) number (%) of patients
MTD ([1]; either of the intermittent dosing schedules): not reached
AEs of CTCAE grade ≥3: Any ([1]; human, in vivo): 26 (63.4) number (%) of patients
AEs of CTCAE grade ≥3: Diarrhea ([1]; human, in vivo): 7 (17.1) number (%) of patients
AEs of CTCAE grade ≥3: Hyperglycemia ([1]; human, in vivo): 16 (39.0) number (%) of patients
AEs of CTCAE grade ≥3: Lymphocyte count decreased ([1]; human, in vivo): 3 (7.3) number (%) of patients
AEs of CTCAE grade ≥3: Neutrophil count decreased ([1]; human, in vivo): 4 (9.8) number (%) of patients
AEs: Blood creatinine increased ([1]; human, in vivo): 14 (34.1) number (%) of patients
AEs: Decreased appetite ([1]; human, in vivo): 20 (48.8) number (%) of patients
AEs: Diarrhea ([1]; human, in vivo): 32 (78.0) number (%) of patients
AEs: Hyperglycemia ([1]; human, in vivo): 28 (68.3) number (%) of patients
AEs: Maculopapular rash ([1]; human, in vivo): 23 (56.1) number (%) of patients
AEs: Nausea ([1]; human, in vivo): 23 (56.1) number (%) of patients
AEs: Proteinuria ([1]; human, in vivo): 16 (39.0) number (%) of patients
AEs: Pyrexia ([1]; human, in vivo): 20 (48.8) number (%) of patients
AEs: Stomatitis ([1]; human, in vivo): 17 (41.5) number (%) of patients
AEs: White blood cell count decreased ([1]; human, in vivo): 13 (31.7) number (%) of patients
Adverse events (AEs): Any ([1]; human, in vivo): 40 (97.6) number (%) of patients
SAE: Any ([1]; human, in vivo): 3 (7.3) number (%) of patients
patients who experienced an AE of CTCAE grade ≥3 ([1]; human, in vivo): 63.4%
patients who experienced at least one AE ([1]; human, in vivo): 97.6%
patients with AE diarrhea ([1]; human, in vivo): 78.0%
patients with AE hyperglycemia ([1]; human, in vivo): 68.3%
patients with AE maculopapular rash ([1]; human, in vivo): 56.1%
patients with AE nausea ([1]; human, in vivo): 56.1%
patients with AEs leading to dose interruption ([1]; human, in vivo): 39.0%
patients with CTCAE grade ≥3 diarrhea ([1]; human, in vivo): 17.1%
patients with CTCAE grade ≥3 hyperglycemia ([1]; human, in vivo): 39.0%
patients with a grade ≥3 AE considered to be treatment related ([1]; human, in vivo): 58.5%
patients with discontinuation due to an AE ([1]; human, in vivo): 12.2%
DLTs reported ([1]; in vivo): No DLTs
patients who experienced DLTs ([1]; in vivo): five
patients who experienced an SAE ([1]; in vivo): Three
deaths related to AEs ([1]; overall, all cohorts): no deaths
Best objective response: Non-response, Not evaluable ([2]; 80 mg bid continuous): 0 (0.0)
Best objective response: Non-response, RECIST progression ([2]; 80 mg bid continuous): 1 (33.3)
Best objective response: Non-response, Stable disease ≥6 weeks ([2]; 80 mg bid continuous): 2 (66.7)
Best objective response: Complete response ([2]; 80 mg bid continuous): 0 (0.0)
Best objective response: Partial response ([2]; 80 mg bid continuous): 0 (0.0)
Best objective response: Non-response, Not evaluable ([2]; 240 mg bid continuous): 1 (14.3)
Best objective response: Non-response, RECIST progression ([2]; 240 mg bid continuous): 5 (71.4)
Best objective response: Non-response, Stable disease ≥6 weeks ([2]; 240 mg bid continuous): 1 (14.3)
Best objective response: Complete response ([2]; 240 mg bid continuous): 0 (0.0)
Best objective response: Partial response ([2]; 240 mg bid continuous): 0 (0.0)
Best objective response: Non-response, Not evaluable ([2]; 320 mg bid continuous): 2 (66.7)
Best objective response: Non-response, RECIST progression ([2]; 320 mg bid continuous): 1 (33.3)
Best objective response: Non-response, Stable disease ≥6 weeks ([2]; 320 mg bid continuous): 0 (0.0)
Best objective response: Complete response ([2]; 320 mg bid continuous): 0 (0.0)
Best objective response: Partial response ([2]; 320 mg bid continuous): 0 (0.0)
Best objective response: Non-response, Not evaluable ([2]; 360 mg bid intermittent 4/3): 2 (25.0)
Best objective response: Non-response, RECIST progression ([2]; 360 mg bid intermittent 4/3): 3 (37.5)
Best objective response: Non-response, Stable disease ≥6 weeks ([2]; 360 mg bid intermittent 4/3): 3 (37.5)
Best objective response: Complete response ([2]; 360 mg bid intermittent 4/3): 0 (0.0)
Best objective response: Partial response ([2]; 360 mg bid intermittent 4/3): 0 (0.0)
Best objective response: Non-response, Not evaluable ([2]; 400 mg bid continuous): 1 (25.0)
Best objective response: Non-response, RECIST progression ([2]; 400 mg bid continuous): 3 (75.0)
Best objective response: Non-response, Stable disease ≥6 weeks ([2]; 400 mg bid continuous): 0 (0.0)
Best objective response: Complete response ([2]; 400 mg bid continuous): 0 (0.0)
Best objective response: Partial response ([2]; 400 mg bid continuous): 0 (0.0)
Best objective response: Non-response, Not evaluable ([2]; 480 mg bid intermittent 4/3): 0 (0.0)
Best objective response: Non-response, RECIST progression ([2]; 480 mg bid intermittent 4/3): 1 (16.7)
Best objective response: Non-response, Stable disease ≥6 weeks ([2]; 480 mg bid intermittent 4/3): 4 (66.7)
Best objective response: Complete response ([2]; 480 mg bid intermittent 4/3): 0 (0.0)
Best objective response: Partial response ([2]; 480 mg bid intermittent 4/3): 1 (16.7)
Best objective response: Non-response, Not evaluable ([2]; 640 mg bid intermittent 2/5): 1 (16.7)
Best objective response: Non-response, RECIST progression ([2]; 640 mg bid intermittent 2/5): 4 (66.7)
Best objective response: Non-response, Stable disease ≥6 weeks ([2]; 640 mg bid intermittent 2/5): 0 (0.0)
Best objective response: Complete response ([2]; 640 mg bid intermittent 2/5): 0 (0.0)
Best objective response: Partial response ([2]; 640 mg bid intermittent 2/5): 1 (16.7)
Best objective response: Non-response, Not evaluable ([2]; Total): 7 (18.9)
Best objective response: Non-response, RECIST progression ([2]; Total): 18 (48.6)
Best objective response: Non-response, Stable disease ≥6 weeks ([2]; Total): 10 (27.0)
Best objective response: Complete response ([2]; Total): 0 (0.0)
Best objective response: Partial response ([2]; Total): 2 (5.4)
patients with confirmed partial response ([2]; all cohorts, both Akt1 (E17K) mutation positive): two
best response, decrease in the SLD of target lesions [2, 4]: 60.8%
day on which progression was confirmed [2, 4]: 378 days
time to partial response after starting AZD5363 [2, 4]: 44 days
patients with stable disease for 12 weeks or more ([2]; of the 10 patients with stable disease): Seven
time partial response was maintained ([2]; one patient in the 480 mg bid 4/3 dosing cohort): > 2 years
best response, decrease in the sum of the longest diameter (SLD) of target lesions [2, 5]: 55.8%
duration of response ([2]; ovarian cancer patient, 480 mg bid intermittent 4/3, as of September 2015, according to the investigator): 1177 days
time to partial response after starting AZD5363 [2, 5]: 79 days
duration of partial response at data cutoff ([2]; patient in the 480 mg bid intermittent 4/3 cohort): 675 days
duration of partial response at data cutoff ([2]; patient in the 640 mg bid intermittent 2/5 cohort): 127 days
patients with stable disease ([2]; three on continuous dosing and seven on intermittent dosing): Ten
patients with a complete response ([2]; tumor response analysis set): no patients
patients with disease progression ([2]; tumor response analysis set, 37 patients): 48.6%
response of PIK3CA mutation positive patients to AZD5363 treatment ([2]; two additional patients identified as PIK3CA mutation positive): did not respond
recommended dose for AZD5363 monotherapy [3]: 480 mg bid
